Calls of active or inactive are those of the source. The calls are words filed in the database; no cut-off is given here.
How the values were obtained:
MCF7 [1] = test: Antiproliferative activity against human MCF7 cells assessed as inhibition of cell proliferation measured by MTT assay; type: functional, cell-based
MDA-MB-231 [2] = test: Antiproliferative activity against human MDA-MB-231 cells assessed as inhibition of cell proliferation measured by MTT assay; type: functional, cell-based
MIA PaCa-2 [3] = test: Antiproliferative activity against human MIA PaCa-2 cells assessed as inhibition of cell proliferation measured by MTT assay; type: functional, cell-based
WiDr [4] = test: Antiproliferative activity against human WiDr cells assessed as inhibition of cell proliferation measured by MTT assay; type: functional, cell-based
4T1 [5] = test: Antiproliferative activity against mouse 4T1 cells assessed as inhibition of cell proliferation measured by MTT assay; type: functional, cell-based
[6] = Antiproliferative activity against mouse 67NR cells assessed as inhibition of cell proliferation measured by MTT assay; type: functional, cell-based
MCF7 [7] = test: Antiproliferative activity against human MCF7 cells assessed as inhibition of cell proliferation measured by SRB assay; type: functional, cell-based
MDA-MB-231 [8] = test: Antiproliferative activity against human MDA-MB-231 cells assessed as inhibition of cell proliferation measured by SRB assay; type: functional, cell-based
MIA PaCa-2 [9] = test: Antiproliferative activity against human MIA PaCa-2 cells assessed as inhibition of cell proliferation measured by SRB assay; type: functional, cell-based
WiDr [10] = test: Antiproliferative activity against human WiDr cells assessed as inhibition of cell proliferation measured by SRB assay; type: functional, cell-based
4T1 [11] = test: Antiproliferative activity against mouse 4T1 cells assessed as inhibition of cell proliferation measured by SRB assay; type: functional, cell-based
[12] = Antiproliferative activity against mouse 67NR cells assessed as inhibition of cell proliferation measured by SRB assay; type: functional, cell-based
4T1 [13] = test: Induction of mitochondrial stress in mouse 4T1 cells assessed as decrease in mitochondrial respiration in presence of oligomycin/FCCP/antimycin A/rotenone by seahorse XFe96 analyser based assay; type: functional, cell-based; conditions: dose 0.625-10 µM
4T1 [14] = test: Induction of mitochondrial stress in mouse 4T1 cells assessed as proton leak across mitochondrial inner membrane in presence of oligomycin/FCCP/antimycin A/rotenone by seahorse XFe96 analyser based assay; type: functional, cell-based; conditions: dose 0.625-10 µM
4T1 [15] = test: Induction of mitochondrial stress in mouse 4T1 cells assessed as decrease in ATP production in presence of oligomycin/FCCP/antimycin A/rotenone by seahorse XFe96 analyser based assay; type: functional, cell-based; conditions: dose 0.625-10 µM
MDA-MB-231 [16] = test: Induction of mitochondrial stress in human MDA-MB-231 cells assessed as decrease in mitochondrial respiration at 0.625 to 10 uM in presence of oligomycin/FCCP/antimycin A/rotenone by seahorse XFe96 analyser based assay; type: functional, cell-based; conditions: dose 0.625-10 µM
MDA-MB-231 [17] = test: Induction of mitochondrial stress in human MDA-MB-231 cells assessed as proton leak across mitochondrial inner membrane in presence of oligomycin/FCCP/antimycin A/rotenone by seahorse XFe96 analyser based assay; type: functional, cell-based; conditions: dose 0.3125-10 µM
MDA-MB-231 [18] = test: Induction of mitochondrial stress in human MDA-MB-231 cells assessed as decrease in ATP production at 0.3125 to 10 uM in presence of oligomycin/FCCP/antimycin A/rotenone by seahorse XFe96 analyser based assay; type: functional, cell-based; conditions: dose 0.3125-10 µM
[19] = Cytotoxicity against human HDFa cells assessed as inhibition of cell proliferation; type: cell-based
4T1 [20] = test: Induction of mitochondrial stress in mouse 4T1 cells assessed as effect on spare respiratory capacity at 5 to 10 uM in presence of oligomycin/FCCP/antimycin A/rotenone by seahorse XFe96 analyser based assay; type: functional, cell-based; conditions: dose 5-10 µM
[21] = Toxicity against CD-1 mouse assessed as changes in grooming pattern at 10 mg/kg for 6 days per week measured after 14 days; type: organism-based; conditions: in vivo, 336 h, time 14 day
[22] = Toxicity against CD-1 mouse assessed as changes in body weight at 10 mg/kg for 6 days per week measured after 14 days; type: organism-based; conditions: in vivo

Structure (SMILES) | IC50 (MCF7 [1]) | IC50 (MDA-MB-231 [2]) | IC50 (MIA PaCa-2 [3]) | IC50 (WiDr [4]) | IC50 (4T1 [5]) | IC50 [6] | other results
COC(=O)/C(=C/c1ccccc1)C[P+](c1ccc(OC)cc1)(c1ccc(OC)cc1)c1ccc(OC)cc1 | 2.67 µM | 9.27 µM | 4.59 µM | 2.74 µM | 7.2 µM | 4.87 µM | –
C=C(C[P+](c1ccc(C)cc1)(c1ccc(C)cc1)c1ccc(C)cc1)C(=O)OC | 2.43 µM | 3.79 µM | 2.66 µM | 1.48 µM | 1.78 µM | 5.34 µM | –
C=C(C[P+](c1ccc(OC)cc1)(c1ccc(OC)cc1)c1ccc(OC)cc1)C(=O)OC | 2.78 µM | 4.87 µM | 3.6 µM | 1.62 µM | 1.85 µM | 10.6 µM | –
COC(=O)/C(=C/c1ccc(C)cc1)C[P+](c1ccc(OC)cc1)(c1ccc(OC)cc1)c1ccc(OC)cc1 | 7.47 µM | 9.79 µM | 0.34 µM | 2.58 µM | 5.23 µM | 2.78 µM | –
COc1ccc([P+](C/C(=C\c2ccc(Br)cc2)C(=O)OC(C)(C)C)(c2ccc(OC)cc2)c2ccc(OC)cc2)cc1 | 0.64 µM | 2.1 µM | 0.36 µM | 0.95 µM | 0.86 µM | 0.62 µM | IC50 (MCF7 [7]): 0.063 µM; IC50 (MDA-MB-231 [8]): 0.58 µM; IC50 (MIA PaCa-2 [9]): 0.2 µM; IC50 (WiDr [10]): 0.14 µM; IC50 (4T1 [11]): 0.5 µM; IC50 [12]: 0.47 µM; Activity (4T1 [13]): Dose-Dependent Effect; Activity (4T1 [14]): Dose-Dependent Effect; Activity (4T1 [15]): Dose-Dependent Effect; Activity (MDA-MB-231 [16]): Active; Activity (MDA-MB-231 [17]): Dose-Dependent Effect; Activity (MDA-MB-231 [18]): Active; IC50 [19]: 5.5 µM; Activity (4T1 [20]): Active
COC(=O)/C(=C/c1ccc(OC)cc1)C[P+](c1ccc(OC)cc1)(c1ccc(OC)cc1)c1ccc(OC)cc1.[Br-] | 1.4 µM | 3.7 µM | 1.37 µM | 1.14 µM | 3.36 µM | 4.59 µM | IC50 (MCF7 [7]): 0.17 µM; IC50 (MDA-MB-231 [8]): 2.19 µM; IC50 (MIA PaCa-2 [9]): 0.31 µM; IC50 (WiDr [10]): 0.76 µM; IC50 (4T1 [11]): 1.83 µM; IC50 [12]: 2.56 µM; IC50 [19]: 23.9 µM; Activity [21]: Non-Toxic; Activity [22]: Non-Toxic
COC(=O)/C(=C/c1ccc(C#N)cc1)C[P+](c1ccc(OC)cc1)(c1ccc(OC)cc1)c1ccc(OC)cc1 | 4.49 µM | 12.5 µM | 7.86 µM | 4.87 µM | 20.4 µM | > 100 µM | –
C=C(C[P+](c1ccccc1)(c1ccccc1)c1ccccc1)C(=O)OC | 19.9 µM | 28.9 µM | 27.4 µM | 7.74 µM | 14.8 µM | 58.4 µM | –
COC(=O)/C(=C/c1ccc(Cl)cc1)C[P+](c1ccc(OC)cc1)(c1ccc(OC)cc1)c1ccc(OC)cc1 | 1.37 µM | 3.01 µM | 0.59 µM | 1.32 µM | 0.98 µM | – | –
C=C(C[P+](c1ccc(OC)cc1)(c1ccc(OC)cc1)c1ccc(OC)cc1)C(=O)OC(C)(C)C | 0.98 µM | 2.69 µM | 1.39 µM | 0.81 µM | 1.08 µM | 2.17 µM | –
C=C(C[P+](c1ccccc1)(c1ccccc1)c1ccccc1)C(=O)N(C)C | > 100 µM | > 100 µM | > 100 µM | 81.2 µM | > 100 µM | > 100 µM | –
COC(=O)/C(=C/c1ccc(F)cc1)C[P+](c1ccc(OC)cc1)(c1ccc(OC)cc1)c1ccc(OC)cc1 | 1.42 µM | 7.41 µM | 1.29 µM | 2.14 µM | 4.57 µM | 5.14 µM | –
COC(=O)/C(=C/c1ccc([N+](=O)[O-])cc1)C[P+](c1ccc(OC)cc1)(c1ccc(OC)cc1)c1ccc(OC)cc1 | 8.83 µM | 8.29 µM | 5.59 µM | 5.95 µM | 4.73 µM | 28.7 µM | –
COC(=O)/C(=C/c1ccc(Br)cc1)C[P+](c1ccc(OC)cc1)(c1ccc(OC)cc1)c1ccc(OC)cc1 | 1.24 µM | 1.91 µM | 0.73 µM | 0.9 µM | 1.21 µM | 2.9 µM | IC50 (MCF7 [7]): 0.17 µM; IC50 (MDA-MB-231 [8]): 0.94 µM; IC50 (MIA PaCa-2 [9]): 0.29 µM; IC50 (WiDr [10]): 0.81 µM; IC50 (4T1 [11]): 1.25 µM; IC50 [12]: 1.78 µM
C=C(C[P+](c1ccc(F)cc1)(c1ccc(F)cc1)c1ccc(F)cc1)C(=O)OC | 47 µM | 91.1 µM | 100 µM | 19 µM | 61.9 µM | 73.9 µM | –
C=C(C[P+](c1ccccc1)(c1ccccc1)c1ccccc1)C(=O)OC(C)(C)C | 1.99 µM | 2.88 µM | 2.87 µM | 2.08 µM | 2.76 µM | 7.57 µM | –
